# From patent US20220322673A1, “Novel Agrochemical Combinations” (UPL LIMITED, priority 2019, published 2022)
# Read-outs that look alike come from different tables or passages of the source.
# Columns and labels:
# Assay type in all cases: in vivo
# Okra Aphids = experiment: Trials of Flonicamid and Orthosilicic acid on controlling Okra Aphids (Example 1); details: doses gm/ha: OSA + Flonicamid 625 + 50, Flonicamid 75, OSA 1250
# Method: Trials were conducted to test the efficacy of the combination of Flonicamid and Orthosilicic acid on controlling Okra Aphids at different dosages.
# Okra Mites = experiment: Trials on controlling Okra Mites post 2nd and 3rd application (Example 2); details: doses gm/ha: OSA 625 + Flonicamid 50 / Acetamipirid 50 / Lancer Gold 650, solo OSA 1250, Flonicamid 75, Acetamipirid 50, Lancer gold 650
# Method: Trials were conducted to test the efficacy of the combination of Flonicamid and Orthosilicic acid on controlling Okra Mites at different dosages post 2nd and 3rd application.
# [1] = test system: Corn FAW (Spodoptera frugiperda); details: for Percent control (%) A01: A01 = 1 day after first spray; for Percent control (%) A14: A14 = 14 days after 1st spray; for Percent control (%) B03: B03 = 3 days after 2nd spray; for Percent control (%) B07: B07 (after 2nd spray); for Percent control (%) B10: B10 (after 2nd spray); for Percent control (%) B21: B21 (after 2nd spray)
# From the text: Application method: Two applications (application A and B) within an interval of 14 days. A01=1 day after first spray, A14=14 days after 1st spray, B03=3 days after 2nd spray.
# [2] = test system: Okra Aphids (Aphis gossypii); details: for Percent control (%) of Okra Aphids, Nymphs + Adults, A01: A01 = 1 day after first spray; for Percent control (%) of Okra Aphids, Nymphs + Adults, B03: B03 = 3 days after 2nd spray; for Percent control (%) of Okra Aphids, Nymphs + Adults, B07: B07 (after 2nd spray); for Percent control (%) of Okra Aphids, Nymphs + Adults, B10: B10 (after 2nd spray); for Percent control (%) of Okra Aphids, Nymphs + Adults, C03: C03 = 3 days after third spray; for Percent control (%) of Okra Aphids, Nymphs + Adults, C10: C10 (after third spray)
# From the text: (§1) In this evaluation, feeding damage & insect population on Okra Leaves before and after sprays is averaged and analyzed for the test of significance. Application method: Three applications (application A, B and C) within an interval of 14 days.
# [3] = test system: Okra Jassids (Amrasca bigutulla bigutulla); details: for Percent control (%) of Okra Jassids, Nymphs + Adults, A01: A01 = 1 day after first spray; for Percent control (%) of Okra Jassids, Nymphs + Adults, A10: A10 (after 1st spray); for Percent control (%) of Okra Jassids, Nymphs + Adults, B03: B03 = 3 days after 2nd spray; for Percent control (%) of Okra Jassids, Nymphs + Adults, B07: B07 (after 2nd spray); for Percent control (%) of Okra Jassids, Nymphs + Adults, B10: B10 (after 2nd spray); for Percent control (%) of Okra Jassids, Nymphs + Adults, B14: B14 (after 2nd spray); for Percent control (%) of Okra Jassids, Nymphs + Adults, C03: C03 = 3 days after third spray; for Percent control (%) of Okra Jassids, Nymphs + Adults, C10: C10 (after third spray)
# From the text: as §1
# [4] = 25% reduced dose of insecticide, gm a.i./ha: OSA 25, CTPR 22.5, Acephate 730, Novaluron 56, Novaluron+Lambda cyhalothrin 67.5, Novaluron+Emamectin 93.5
# [5] = doses gm a.i./ha: OSA 25, CTPR 30, Acephate 970, Novaluron 75, Novaluron+Lambda cyhalothrin 90, Novaluron+Emamectin 125
# [6] = doses gm a.i./ha: OSA 25, Flonicamid 100, Acephate+Imidacloprid 520, Flonicamid+Fipronil 100+50, Imidacloprid 24.5, Acetamiprid 15
# [7] = reduced insecticide dose, gm a.i./ha: OSA 25, Flonicamid (Ulala) 75, Acephate+Imidacloprid 390, Flonicamid+Fipronil 75+37.5, Imidacloprid 18.3, Acetamiprid 11.2
# [8] = 25% reduced dose rate, gm a.i./ha: OSA 25, Flonicamid 75, Acephate+Imidacloprid 390, Flonicamid+Fipronil 75+37.5, Imidacloprid 18.3, Acetamiprid 11.2
substance,measurement,setting,value
orthosilicic acid [OSA],Percent control B01,Okra Aphids; B01,29.6%
same,Percent control C-01,Okra Aphids; C-01,23.3%
same,Percent control C-10,Okra Aphids; C-10,26.7%
same,Percent control Mean,"Okra Aphids; Mean of B01, C-01, C-10",26.53%
same,Percent control B07,Okra Mites; B07,10%
same,Percent control C-01,Okra Mites; C-01,19.3%
same,Percent control C-10,Okra Mites; C-10,11.7%
same,Percent control Mean,"Okra Mites; Mean of B07, C-01, C-10",13.66%
same,Percent control (%) A01,[1]; [4],29.3%
same,Percent control (%) A01,[1]; [5],32.4%
same,Percent control (%) A14,[1]; [4],44.8%
same,Percent control (%) A14,[1]; [5],47.4%
same,Percent control (%) B03,[1]; [4],51.9%
same,Percent control (%) B03,[1]; [5],53.7%
same,Percent control (%) B07,[1]; [4],61.4%
same,Percent control (%) B07,[1]; [5],58.6%
same,Percent control (%) B10,[1]; [4],57.9%
same,Percent control (%) B10,[1]; [5],60.6%
same,Percent control (%) B21,[1]; [4],56.5%
same,Percent control (%) B21,[1]; [5],59.0%
same,"Percent control (%) of Okra Aphids, Nymphs + Adults, A01",[2]; [6],32.3%
same,"Percent control (%) of Okra Aphids, Nymphs + Adults, A01",[2]; [7],30.2%
same,"Percent control (%) of Okra Aphids, Nymphs + Adults, A10","[2]; A10 (after 1st spray), doses gm a.i./ha: OSA 25, Flonicamid 100, Acephate+Imidacloprid 520, Flonicamid+Fipronil 100+50, Imidacloprid 24.5, Acetamiprid 15",48.5%
same,"Percent control (%) of Okra Aphids, Nymphs + Adults, A14","[2]; A14 = 14 days after 1st spray, reduced insecticide dose, gm a.i./ha: OSA 25, Flonicamid (Ulala) 75, Acephate+Imidacloprid 390, Flonicamid+Fipronil 75+37.5, Imidacloprid 18.3, Acetamiprid 11.2",47%
same,"Percent control (%) of Okra Aphids, Nymphs + Adults, B03",[2]; [6],52%
same,"Percent control (%) of Okra Aphids, Nymphs + Adults, B03",[2]; [7],55%
same,"Percent control (%) of Okra Aphids, Nymphs + Adults, B07",[2]; [6],56%
same,"Percent control (%) of Okra Aphids, Nymphs + Adults, B07",[2]; [7],57.7%
same,"Percent control (%) of Okra Aphids, Nymphs + Adults, B10",[2]; [6],56.1%
same,"Percent control (%) of Okra Aphids, Nymphs + Adults, B10",[2]; [7],55.7%
same,"Percent control (%) of Okra Aphids, Nymphs + Adults, C03",[2]; [6],57%
same,"Percent control (%) of Okra Aphids, Nymphs + Adults, C03",[2]; [7],59.4%
same,"Percent control (%) of Okra Aphids, Nymphs + Adults, C10",[2]; [6],59.7%
same,"Percent control (%) of Okra Aphids, Nymphs + Adults, C10",[2]; [7],60.3%
same,"Percent control (%) of Okra Jassids, Nymphs + Adults, A01",[3]; [8],27.9%
same,"Percent control (%) of Okra Jassids, Nymphs + Adults, A01",[3]; [6],25.3%
same,"Percent control (%) of Okra Jassids, Nymphs + Adults, A10",[3]; [8],37%
same,"Percent control (%) of Okra Jassids, Nymphs + Adults, A10",[3]; [6],35.8%
same,"Percent control (%) of Okra Jassids, Nymphs + Adults, B03",[3]; [8],40.9%
same,"Percent control (%) of Okra Jassids, Nymphs + Adults, B03",[3]; [6],42.7%
same,"Percent control (%) of Okra Jassids, Nymphs + Adults, B07",[3]; [8],47.9%
same,"Percent control (%) of Okra Jassids, Nymphs + Adults, B07",[3]; [6],46.5%
same,"Percent control (%) of Okra Jassids, Nymphs + Adults, B10",[3]; [8],48.6%
same,"Percent control (%) of Okra Jassids, Nymphs + Adults, B10",[3]; [6],45.5%
same,"Percent control (%) of Okra Jassids, Nymphs + Adults, B14",[3]; [8],43%
same,"Percent control (%) of Okra Jassids, Nymphs + Adults, B14",[3]; [6],44.7%
same,"Percent control (%) of Okra Jassids, Nymphs + Adults, C03",[3]; [8],45.5%
same,"Percent control (%) of Okra Jassids, Nymphs + Adults, C03",[3]; [6],46.9%
same,"Percent control (%) of Okra Jassids, Nymphs + Adults, C10",[3]; [8],49.1%
same,"Percent control (%) of Okra Jassids, Nymphs + Adults, C10",[3]; [6],48.6%
